Results as given in patent US20200270309A1, “MALEIMIDE GROUP-MODIFIED ANGIOGENESIS INHIBITOR HM-1 AND USE THEREOF” (NANJING ANJI BIOLOGICAL TECHNOLOGY CO., LTD, priority 2017, published 2020).
Like-named read-outs stand apart in the source and are kept apart here. Peptide text beside a SMILES is read from it. * marks the point of attachment. Hexanoyl(6-maleimido) = O=C1C=CC(=O)N1CCCCCC(=O)*; Propanoyl(3-maleimido) = O=C1C=CC(=O)N1CCC(=O)*; X14 = O=C1C=CC(=O)N1CCOCCOCCOCCOCCOCCCCCCC(=O)*; X6 = O=C1C=CC(=O)N1CCOCCOCCOCCCCCCCC(=O)*; X8 = O=C1C=CC(=O)N1CCOCCOCCCC(=O)*; X83 = O=C1C=CC(=O)N1CCCCCCC(=O)*; X38 = O=C1C=CC(=O)N1CCOCC(=O)*

Assay: Half-lives and pharmacokinetic parameters of polypeptides vs HM-1
Conditions: in vivo
[1] = read-out: T1/2β (half-life) (converted)

Structure (SMILES)	AUC(0-inf) [ng·h/mL]	MRT inf [h]	clearance [mL/min/kg]	half-life (T1/2β (half-life)) [h]	AUC(0-inf) (read-out: AUC0-∞) [ng·h/mL]	clearance (read-out: CL (converted)) [mL/min/kg]	MRT inf (read-out: MRT0-∞) [h]	half-life [1] [h]	half-life [h]
C[C@H](NC(=O)CNC(=O)[C@H](CCCNC(=N)N)NC(=O)CCCCCCCOCCOCCOCCN1C(=O)C=CC1=O)C(=O)N[C@@H](CC(=O)O)C(=O)N[C@@H](CCCNC(=N)N)C(=O)N[C@@H](C)C(=O)NCC(=O)NCC(=O)NCC(=O)NCC(=O)N[C@@H](CCCNC(=N)N)C(=O)NCC(=O)N[C@@H](CC(=O)O)C(=O)O [X69] (X6-RGADRAGGGGRGD-OH)	26900 ± 8290	48.2 ± 14.3	0.62	33.38 ± 0.32					
C[C@H](NC(=O)CNC(=O)[C@H](CCCNC(=N)N)NC(=O)CCCCCCN1C(=O)C=CC1=O)C(=O)N[C@@H](CC(=O)O)C(=O)N[C@@H](CCCNC(=N)N)C(=O)N[C@@H](C)C(=O)NCC(=O)NCC(=O)NCC(=O)NCC(=O)N[C@@H](CCCNC(=N)N)C(=O)NCC(=O)N[C@@H](CC(=O)O)C(=O)O [X6] (X83-RGADRAGGGGRGD-OH)	30500 ± 7170	54.6 ± 12.2	0.547	37.86 ± 0.28					
C[C@H](NC(=O)CNC(=O)[C@H](CCCNC(=N)N)NC(=O)COCCN1C(=O)C=CC1=O)C(=O)N[C@@H](CC(=O)O)C(=O)N[C@@H](CCCNC(=N)N)C(=O)N[C@@H](C)C(=O)NCC(=O)NCC(=O)NCC(=O)NCC(=O)N[C@@H](CCCNC(=N)N)C(=O)NCC(=O)N[C@@H](CC(=O)O)C(=O)O [X49] (X38-RGADRAGGGGRGD-OH)					28500 ± 7290	0.585	51 ± 11.1	35.31 ± 0.32	
C[C@H](NC(=O)CNC(=O)[C@H](CCCNC(=N)N)NC(=O)CCCCCN1C(=O)C=CC1=O)C(=O)N[C@@H](CC(=O)O)C(=O)N[C@@H](CCCNC(=N)N)C(=O)N[C@@H](C)C(=O)NCC(=O)N[C@@H](CO)C(=O)N[C@@H](CO)C(=O)N[C@@H](CO)C(=O)N[C@@H](CO)C(=O)N[C@@H](CCCNC(=N)N)C(=O)NCC(=O)N[C@@H](CC(=O)O)C(=O)O [P14] ({Hexanoyl(6-maleimido)}-RGADRAGSSSSRGD-OH; C-terminus assumed)					32200 ± 7560	0.518	57.5 ± 9.63	39.85 ± 0.31	
C[C@H](NC(=O)CNC(=O)[C@H](CCCNC(=N)N)NC(=O)CCCOCCOCCN1C(=O)C=CC1=O)C(=O)N[C@@H](CC(=O)O)C(=O)N[C@@H](CCCNC(=N)N)C(=O)N[C@@H](C)C(=O)NCC(=O)NCC(=O)NCC(=O)NCC(=O)N[C@@H](CCCNC(=N)N)C(=O)NCC(=O)N[C@@H](CC(=O)O)C(=O)O [X58] (X8-RGADRAGGGGRGD-OH)	26200 ± 7810	47.9 ± 13.5	0.635	32.57 ± 0.28					
C[C@H](NC(=O)[C@H](CCCNC(=N)N)NC(=O)[C@H](CC(=O)O)NC(=O)[C@H](CCC(=O)O)NC(=O)CNC(=O)[C@H](CCCNC(=N)N)NC(=O)CCN1C(=O)C=CC1=O)C(=O)NCC(=O)NCC(=O)NCC(=O)NCC(=O)N[C@@H](CCCNC(=N)N)C(=O)NCC(=O)N[C@@H](CC(=O)O)C(=O)O [P5] ({Propanoyl(3-maleimido)}-RGEDRAGGGGRGD-OH; C-terminus assumed)	29200 ± 7880	52.4 ± 12.2	0.57						36.28 ± 0.25
C[C@H](NC(=O)CNC(=O)[C@H](CCCNC(=N)N)NC(=O)CCCCCCOCCOCCOCCOCCOCCN1C(=O)C=CC1=O)C(=O)N[C@@H](CC(=O)O)C(=O)N[C@@H](CCCNC(=N)N)C(=O)N[C@@H](C)C(=O)NCC(=O)NCC(=O)NCC(=O)NCC(=O)N[C@@H](CCCNC(=N)N)C(=O)NCC(=O)N[C@@H](CC(=O)O)C(=O)O [X82] (X14-RGADRAGGGGRGD-OH)	25700 ± 7220	46 ± 13.6	0.648	31.9 ± 0.35					
C[C@H](NC(=O)CNC(=O)[C@H](CCCNC(=N)N)NC(=O)CCCCCN1C(=O)C=CC1=O)C(=O)N[C@@H](CC(=O)O)C(=O)N[C@@H](CCCNC(=N)N)C(=O)N[C@@H](C)C(=O)N[C@@H](CCC(=O)O)C(=O)N[C@@H](C)C(=O)N[C@@H](C)C(=O)N[C@@H](C)C(=O)N[C@@H](CCCCN)C(=O)N[C@@H](CCCNC(=N)N)C(=O)NCC(=O)N[C@@H](CC(=O)O)C(=O)O [P12] ({Hexanoyl(6-maleimido)}-RGADRAEAAAKRGD-OH; C-terminus assumed)					34000 ± 6880	0.49	61 ± 10.1	42.24 ± 0.29	
